The source made the active and inactive calls. The calls are words filed in the database; no cut-off is given here.
How the values were obtained:
[1] = target: Human immunodeficiency virus type 1 reverse transcriptase (Human immunodeficiency virus 1) (UniProt Q72547); experiment: Inhibition of HIV-1 reverse transcriptase assessed as inhibition of primer extension using 5' 32P-end-labeled 17-mer DNA/40-mer RNA as primer/template up to 1 mM measured after 5 mins by PAGE analysis
[2] = test system: Human immunodeficiency virus 1; experiment: Antiviral activity against VSV-G pseudotyped HIV-1 NL4-3 infected in human U373-MAGI cells assessed as reduction in U5-gag level at 5 to 200 nM measured at 6 to 12 hrs post infection by qPCR method; assay type: functional, organism-based
[3] = test system: Human immunodeficiency virus 1; experiment: Antiviral activity against VSV-G pseudotyped HIV-1 NL4-3 infected in human U373-MAGI cells assessed as reduction in U5-gag level at 50 or 100 nM measured at 72 hrs post infection by qPCR method; assay type: functional, organism-based
[4] = test system: Human immunodeficiency virus 1; experiment: Antiviral activity against VSV-G pseudotyped HIV-1 NL4-3 infected in human U373-MAGI cells assessed as reduction in gag level at 5 to 200 nM measured at 6 to 12 hrs post infection by qPCR method; assay type: functional, organism-based
[5] = test system: Human immunodeficiency virus 1; experiment: Antiviral activity against VSV-G pseudotyped HIV-1 NL4-3 infected in human U373-MAGI cells assessed as reduction in gag level at 50 or 100 nM measured at 72 hrs post infection by qPCR method; assay type: functional, organism-based

Row | SMILES | inhibition [1] | Activity [2] | Activity [3] | Activity [4] | Activity [5]
1 | Nc1ncn([C@@H]2O[C@H](COP(=O)(O)OP(=O)(O)OP(=O)(O)O)[C@@H](O)[C@H]2O)c(=O)n1 | inactive |  |  |  | 
2 | Nc1ncn([C@H]2C[C@H](O)[C@@H](COP(=O)(O)OP(=O)(O)OP(=O)(O)O)O2)c(=O)n1 | inactive |  |  |  | 
3 | Cc1nnc(C(=O)NC(C)(C)c2nc(C(=O)NCc3ccc(F)cc3)c(O)c(=O)n2C)o1 |  | inactive | Active | inactive | Active

— ChEMBL document CHEMBL3797079, “Synergistic reduction of HIV-1 infectivity by 5-azacytidine and inhibitors of ribonucleotide reductase” (Bioorg Med Chem, 2016)
